Laboratory results from US20230080477A1, “PROCESS OF SYNTHESIS OF NOVEL CHROMIUM (III) COMPLEXES OF SCHIFF BASE LIGANDS AND THEIR USE THERE OF AS THERAPEUTIC AGENTS” (priority 2021, published 2023).

Tests used:
[1] = Eastmond et al., 2008; Katz & salem, 1993; cited from earlier work
[2] = DPPH free radical antioxidant activity assay; assay type: biochemical; conditions: dilution 1 ml, wavelength 517 nm; for Inhibition: DPPH assay
Procedure: Antioxidant activity of the synthesized Cr(III) Schiff base complexes was tested using the free radical compound 2,2-diphenyl-1-picrylhydrazyl(DPPH) (25,26). This compound has a violet color when dissolved in ethanol and a strong absorption maximum centered at around 515-520 nm. DPPH became colorless or pale yellow when neutralized. An aliquot of DPPH (0.3 ml) in ethanol ([…]) was added to ethanol(3 ml), followed by addition of Cr(III) complex dissolve in ethanol (0.5 ml)(total Volume 3.8 ml). A UV/visible spectrophotometer was used to monitor the color change at 517 nm after 100 minutes of reaction. A blank sample contained a mixture of the Cr(III) complex in ethanol (0.5 ml) and ethanol (3.3 ml) (Total Volume 3.8 ml) without any DPPH (no violet color). A control sample contained a solution of DPPH (0.3 ml) and ethanol (3.5 ml) (total volume 3.8 ml) without any Cr (III) complex (Violet color remains). The amount of scavenging activity (%) was determined by the method of Mensor et al. (27).
Finally, the % scavenging activities for Schiff base ligands and derived Cr(III) complexes were calculated by applying the formula
Scavenging activity=(Ac−At)/Ac×100%
Where Ac and At represent the absorbance of the control and test samples, respectively (Choudhary et al., 2011)^28

| SMILES | Acute toxicity range [1] | Inhibition [2] | DPPH Equivalent Antioxidant activity [2] | Total Antioxidant activity [2] |
| --- | --- | --- | --- | --- |
| [Cr+3] [Cr(III) ion] | 1.5 to 3.3 mg/kg | – | – | – |
| Cc1ccc(NC(=O)CC(=O)NNc2cc[nH]c2)cc1 [Ligand 1] | – | 0.077 | 1.253 | 65% |
| CC/C=N\NC(=O)CC(=O)Nc1ccc(C)cc1 [Ligand 2, N-[4-methylphenyl)-3-oxo-3[(2Z)-2-propylidene hydrazinyl] propanamide] | – | 0.074 | 1.223 | 66% |
